Each block holds one molecule with its values, some of them ahead of it.
Assays:
HeLa cells = assay: Survival Enhancement Ratio (clonogenic survival assay after 2 Gray irradiation); type: cell-based; details: inhibitor 100 nM
PI 3-kinase = details: stated to be the same as for DNA-PK; cited from earlier work
DNA-PK = DNA-PK (Homo sapiens, UniProt P78527); details: read-out: IC50 towards DNA-PK; cited from earlier work
cells = details: cited from earlier work

Compound: O=c1cc(N2CCOCC2)oc2c(-c3cccc4c3sc3ccccc34)cccc12
Survival Enhancement Ratio (SER) (HeLa cells): 1.3

melting point: 148 °C
Compound: O=C(CCNCC1CCCO1)Nc1ccc(-c2cccc3c(=O)cc(N4CCOCC4)oc23)c2sc3ccccc3c12 (centres unmarked) [Compound 53]

Compound: O=c1cc(N2CCOCC2)oc2c(-c3ccccc3)cccc12 [LY294002]
IC50 (PI 3-kinase): ~1 µM | IC50 (DNA-PK): ~1 µM | sensitisation of cells to the effects of IR (cells): weakly sensitise cells to the effects of IR
